The target in test [1] is Cyclin-dependent kinase 2 (Homo sapiens, UniProt P24941). Kind of test: Inhibition of cyclin A activated Cyclin-dependent kinase 2 (CDK2).
Test [2] deals with Cyclin-dependent kinase 1 (Homo sapiens, UniProt P06493). Kind of test: Inhibition of cyclin B activated Cyclin-dependent kinase 1 (CDK1).
In test [3] the target is Cyclin-dependent kinase 4 (Homo sapiens, UniProt P11802). Kind of test: Inhibition of cyclin D1 activated Cyclin-dependent kinase 4 (CDK4).
In test [4] the target is Epidermal growth factor receptor (Homo sapiens) (UniProt P00533). Kind of test: Inhibition of Epidermal growth factor receptor at 10 uM.
Chain of Epidermal growth factor receptor (Homo sapiens) (P00533 whole entry): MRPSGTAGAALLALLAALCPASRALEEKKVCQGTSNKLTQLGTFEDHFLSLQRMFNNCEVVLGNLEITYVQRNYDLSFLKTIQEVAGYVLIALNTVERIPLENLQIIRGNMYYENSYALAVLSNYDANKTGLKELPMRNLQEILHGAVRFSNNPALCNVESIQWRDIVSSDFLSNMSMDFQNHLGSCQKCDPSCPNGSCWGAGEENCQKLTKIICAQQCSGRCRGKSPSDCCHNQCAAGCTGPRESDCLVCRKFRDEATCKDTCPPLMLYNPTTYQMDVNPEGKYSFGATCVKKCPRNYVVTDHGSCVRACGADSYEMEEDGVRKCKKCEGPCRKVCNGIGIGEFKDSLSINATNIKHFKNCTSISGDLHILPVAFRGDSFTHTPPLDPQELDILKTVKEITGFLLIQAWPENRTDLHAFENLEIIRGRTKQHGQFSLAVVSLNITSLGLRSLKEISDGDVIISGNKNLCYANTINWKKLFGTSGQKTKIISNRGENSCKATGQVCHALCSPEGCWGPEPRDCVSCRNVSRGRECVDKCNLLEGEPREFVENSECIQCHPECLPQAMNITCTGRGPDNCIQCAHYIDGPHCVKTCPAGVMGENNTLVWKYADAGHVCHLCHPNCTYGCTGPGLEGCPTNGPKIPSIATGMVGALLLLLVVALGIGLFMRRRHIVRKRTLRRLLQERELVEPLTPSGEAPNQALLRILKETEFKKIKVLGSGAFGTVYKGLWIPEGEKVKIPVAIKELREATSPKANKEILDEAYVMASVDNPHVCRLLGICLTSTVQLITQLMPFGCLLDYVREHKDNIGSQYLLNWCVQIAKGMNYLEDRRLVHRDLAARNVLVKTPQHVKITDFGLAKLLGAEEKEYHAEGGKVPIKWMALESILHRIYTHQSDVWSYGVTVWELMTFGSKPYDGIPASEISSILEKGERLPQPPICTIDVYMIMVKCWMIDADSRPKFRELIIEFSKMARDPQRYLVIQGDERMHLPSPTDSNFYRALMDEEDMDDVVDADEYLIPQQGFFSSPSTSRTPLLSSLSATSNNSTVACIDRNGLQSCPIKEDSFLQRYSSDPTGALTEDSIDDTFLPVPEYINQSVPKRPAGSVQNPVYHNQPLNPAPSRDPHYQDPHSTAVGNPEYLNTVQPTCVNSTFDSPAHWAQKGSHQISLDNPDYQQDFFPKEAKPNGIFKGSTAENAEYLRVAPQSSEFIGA
In test [5] the target is Glycogen synthase kinase-3 (Homo sapiens, UniProt P49840+P49841). The test is described as follows: inhibition of Glycogen synthase kinase-3. Type of test: protein assay.
For test [6], the system named is HCT-116. The test is described as follows: Inhibition of HCT116 (transformed colon) cell proliferation. Format: functional, cell-based. The following applies: Homo sapiens.
For test [7], the target named is T1, Protein kinase C alpha type (Homo sapiens, UniProt P17252). Kind of test: Inhibition of Protein kinase C alpha at 10 uM.
Test [8] has as its target Vascular endothelial growth factor receptor 2 (Homo sapiens) (UniProt P35968). The test is described as follows: Inhibition of Vascular endothelial growth factor receptor 2 (VEGF-KDR) at 10 uM.
Test [9] has as its target T1, Protein kinase C alpha type. Kind of test: Inhibition of Protein kinase C alpha.

Some results are limits rather than exact numbers.

Chain of Vascular endothelial growth factor receptor 2 (Homo sapiens) (P35968 whole entry): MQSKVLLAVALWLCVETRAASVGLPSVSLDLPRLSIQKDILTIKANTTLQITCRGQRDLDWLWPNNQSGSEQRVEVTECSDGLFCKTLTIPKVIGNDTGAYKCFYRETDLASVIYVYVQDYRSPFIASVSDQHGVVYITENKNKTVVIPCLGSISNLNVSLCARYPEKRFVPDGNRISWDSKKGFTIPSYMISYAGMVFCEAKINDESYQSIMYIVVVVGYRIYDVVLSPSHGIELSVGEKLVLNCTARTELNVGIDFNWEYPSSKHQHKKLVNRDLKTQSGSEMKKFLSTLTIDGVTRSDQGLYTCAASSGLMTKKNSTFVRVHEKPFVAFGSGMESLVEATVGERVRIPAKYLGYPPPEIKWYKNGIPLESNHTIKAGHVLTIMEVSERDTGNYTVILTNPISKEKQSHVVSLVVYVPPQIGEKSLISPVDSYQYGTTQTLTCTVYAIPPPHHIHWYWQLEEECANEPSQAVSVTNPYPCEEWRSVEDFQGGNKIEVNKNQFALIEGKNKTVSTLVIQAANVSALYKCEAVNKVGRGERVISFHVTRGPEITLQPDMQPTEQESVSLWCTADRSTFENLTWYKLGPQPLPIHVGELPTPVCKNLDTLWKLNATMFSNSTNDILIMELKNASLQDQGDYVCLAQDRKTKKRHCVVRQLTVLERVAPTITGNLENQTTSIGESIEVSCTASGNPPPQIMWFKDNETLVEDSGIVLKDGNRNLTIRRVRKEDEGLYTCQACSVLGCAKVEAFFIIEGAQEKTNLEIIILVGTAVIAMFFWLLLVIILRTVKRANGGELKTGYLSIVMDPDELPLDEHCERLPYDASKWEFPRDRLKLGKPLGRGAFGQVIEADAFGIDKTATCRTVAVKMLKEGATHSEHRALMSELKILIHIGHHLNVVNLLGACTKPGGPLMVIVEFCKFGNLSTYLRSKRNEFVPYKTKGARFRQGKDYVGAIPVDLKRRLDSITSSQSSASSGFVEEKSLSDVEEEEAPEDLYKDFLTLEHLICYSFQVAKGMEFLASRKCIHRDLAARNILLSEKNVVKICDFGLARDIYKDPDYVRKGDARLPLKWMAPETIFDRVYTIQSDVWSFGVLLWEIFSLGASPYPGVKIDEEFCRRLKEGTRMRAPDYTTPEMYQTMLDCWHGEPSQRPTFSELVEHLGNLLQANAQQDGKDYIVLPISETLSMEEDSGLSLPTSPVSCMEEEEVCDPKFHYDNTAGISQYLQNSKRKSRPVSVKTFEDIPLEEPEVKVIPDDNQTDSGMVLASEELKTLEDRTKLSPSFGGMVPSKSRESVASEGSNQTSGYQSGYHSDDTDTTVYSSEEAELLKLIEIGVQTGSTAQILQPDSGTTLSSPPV
Chain of Cyclin-dependent kinase 4 (P11802 whole entry): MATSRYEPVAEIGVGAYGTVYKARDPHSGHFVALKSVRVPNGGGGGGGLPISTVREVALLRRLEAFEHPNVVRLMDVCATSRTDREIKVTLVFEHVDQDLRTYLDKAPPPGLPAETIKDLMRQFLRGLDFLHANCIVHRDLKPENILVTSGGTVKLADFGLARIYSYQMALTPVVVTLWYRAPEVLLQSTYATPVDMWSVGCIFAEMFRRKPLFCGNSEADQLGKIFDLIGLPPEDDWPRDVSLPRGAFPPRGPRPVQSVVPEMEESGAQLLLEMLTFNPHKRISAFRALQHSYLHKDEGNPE
Chain of Cyclin-dependent kinase 1 (P06493 whole entry): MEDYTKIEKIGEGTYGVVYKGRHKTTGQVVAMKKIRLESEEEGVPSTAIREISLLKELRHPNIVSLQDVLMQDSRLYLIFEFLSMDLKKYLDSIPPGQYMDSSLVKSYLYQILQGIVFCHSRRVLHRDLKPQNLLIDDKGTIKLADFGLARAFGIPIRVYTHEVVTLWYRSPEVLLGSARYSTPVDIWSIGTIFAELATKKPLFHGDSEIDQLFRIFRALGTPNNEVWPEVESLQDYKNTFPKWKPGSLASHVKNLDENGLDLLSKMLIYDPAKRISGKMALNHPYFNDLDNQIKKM

With `CN1CCC(c2c(O)cc(O)c3c2O/C(=C\c2ccc(N4CCN(C)CC4)cc2)C3=O)CC1`, the IC50 in test [1] came out at 2980 nM; in [2] it was 800 nM; in test [3] it was 1920 nM; in test [5], 1750 nM; in [6], 24800 nM. Moreover, the inhibition was found to be 29% in test [4], 21% in [7] and 25% in test [8].
For the molecule `CN1CCC(c2c(O)cc(O)c3c2O/C(=C\c2ccc([N+](=O)[O-])cc2)C3=O)CC1`, the IC50 in test [1] stood at 310 nM; in [3], 2210 nM; in [5], 4800 nM; in test [6], 35600 nM; in test [9], 22000 nM. The figures for the inhibition in [4] and in test [8] were 43% and 37%, respectively.
Regarding `CN1CCC(c2c(O)cc(O)c3c2O/C(=C\c2ccc(S(N)(=O)=O)cc2)C3=O)CC1`, the IC50 in [1] was 30 nM; in test [2], 9 nM; in test [3], 1870 nM; in test [5], 3700 nM; in test [6], more than 50000 nM. Moreover, the inhibition stood at 36% in test [4], 42% in test [7] and 25% in [8].
Consider `CN1CCC(c2c(O)cc(O)c3c2O/C(=C\c2ccccc2Cl)C3=O)CC1`, for which the IC50 in [1] was found to be 3970 nM; in [2], 600 nM; in test [3], 25300 nM; in test [5], 10000 nM; in test [6] it was 20100 nM. Further, the inhibition came to 22% in test [7] and 17% in test [8].
Turning to `CN1CCC(c2c(O)cc(O)c3c2O/C(=C\c2ccccc2)C3=O)CC1`, the IC50 in test [1] is 1280 nM; in [2], 110 nM; in [3] it was 4410 nM; in test [5], 4200 nM; in [6], more than 50000 nM. Also, the inhibition turned out to be 38% in test [4], 19% in test [7] and 2% in [8].

In general, IC50 refers to the concentration at which inhibition is half-maximal. A higher IC50 goes with a need for much substance. One may read the inhibition as the share of the control response that was lost under treatment. Lower therefore signals little suppression.

The values are drawn from ChEMBL document CHEMBL1135924, “Structure-based design and synthesis of 2-benzylidene-benzofuran-3-ones as flavopiridol mimics” (J Med Chem, 2002).
